Tests used:
CDK2/CycE = molecular target: T1, CDK2/CycE (Homo sapiens, UniProt P24941); test: CDK2/CycE kinase assay (TR-FRET, 2 mM ATP); type: biochemical; settings: 2 mM ATP (high ATP); median; read-out: CDK2/CyclinE, 2 mM ATP (high ATP), IC50 (median)
T1 construct: purchased ProQinase GmbH (Freiburg, Germany); host or cells: insect cells (Sf9)
Excerpt: CDK2/CycE-inhibitory activity of compounds of the present invention was quantified employing the CDK2/CycE TR-FRET assay as described in the following paragraphs.
Recombinant fusion proteins of GST and human CDK2 and of GST and human CycE, expressed in insect cells (Sf9) and purified by Glutathion-Sepharose affinity chromatography, were purchase from ProQinase GmbH (Freiburg, Germany). As substrate for the kinase reaction biotinylated peptide biotin-Ttds-YISPLKSPYKISEG (C-terminus in amid form) was used which can be purchased e.g. form the company JERINI peptide technologies (Berlin, Germany).
For the assay 50 nanoL of a 100 fold concentrated solution of the test compound in DMSO was pipetted into a black low volume 384 well microtiter plate or a black 1536 well microtiter plate (both Greiner Bio-One, Frickenhausen, Germany), 2 microL of a solution of CDK2/CycE in aqueous assay buffer [50 millimol/L Tris/HCl pH 8.0, 10 millimol/L MgCl2, 1.0 millimol/L dithiothreitol, 0.1 millimol/L sodium ortho-vanadate, 0.01% (v/v) Nonidet-P40 (Sigma)] were added and the mixture was incubated for 15 min at 22° C. to allow pre-binding of the test compounds to the enzyme before the start of the kinase reaction. Then the kinase reaction was started by the addition of 3 microL of a solution of adenosine-tri-phosphate (ATP, 3.33 millimol/L=>final conc. in the 5 microL assay volume is 2 millimol/L) and substrate (1.25 micromol/L=>final conc. in the 5 microL assay volume is 0.75 micromol/L) in assay buffer and the resulting mixture was incubated for a reaction time of 25 min at 22° C. The concentration of CDK2/CycE was adjusted depending of the activity of the enzyme lot and was chosen appropriate to have the assay in the linear range, typical concentrations were in the range of 10 ng/ml. The reaction was stopped by the addition of 3 microL of a solution of TR-FRET detection reagents (0.333 micromol/L streptavidine-XL665 [Cisbio Bioassays, Codolet, France] and 1.67 nanomol/L anti-RB(pSer807/pSer8l 1)-antibody from BD Pharmingen [#558389] and 2 nanomol/L LANCE EU-W1024 labeled anti-mouse IgG antibody [Perkin-Elmer, product no. AD0077, as an alternative a Terbium-cryptate-labeled anti-mouse IgG antibody from Cisbio Bioassays can be used]) in an aqueous EDTA-solution (167 millimol/L EDTA, 0.2% (w/v) bovine serum albumin in 100 millimol/L HEPES pH 7.5).
(§1) The resulting mixture was incubated 1 h at 22° C. to allow the formation of complex between the phosphorylated biotinylated peptide and the detection reagents. Subsequently the amount of phosphorylated substrate was evaluated by measurement of the resonance energy transfer from the Eu-chelate to the streptavidine-XL. Therefore, the fluorescence emissions at 620 nm and 665 nm after excitation at 350 nm was measured in a TR-FRET reader, e.g. a Pherastar (BMG Labtechnologies, Offenburg, Germany) or a Viewlux (Perkin-Elmer). The ratio of the emissions at 665 nm and at […] was taken as the measure for the amount of phosphorylated substrate. The data were normalised (enzyme reaction without inhibitor=0% inhibition, all other assay components but no enzyme=100% inhibition).

CDK12/CycK = CDK12/CycK (Homo sapiens, UniProt Q9NYV4); test: CDK12/CycK high ATP kinase assay (TR-FRET, 2 mM ATP); type: biochemical; settings: 2 mM ATP (high ATP); median; read-out: CDK12/CyclinK, 2 mM ATP (high ATP), IC50-[mol/l] (median)
Description: In the context of the present invention, the term “IC50 CDK12 hATP” refers to the IC50 values obtained according to the assay described in this section (2.2) herein below, i.e. the IC50 values for the inhibition of CDK12 at high (2 mM) ATP.
CDK12/CycK-inhibitory activity of compounds of the present invention at 2 millimol/L adenosine-tri-phosphate (ATP) was quantified employing the TR-FRET (TR-FRET=Time Resolved Fluorescence Energy Transfer) based CDK12/CycK activity inhibition assay as described in the following paragraphs.
A complex of human recombinant CDK12 and human recombinant CycK (both N-terminally His-tagged, expression and purification as described above) was used as enzyme. As substrate for the kinase reaction biotinylated peptide biotin-Ahx-KFELLPTPPLSPSRRSGL (C-terminus in amid form) was used which can be purchased e.g. form the company Biosyntan (Berlin-Buch, Germany).
For the assay 50 nanoL of a 100 fold concentrated solution of the test compound in DMSO was pipetted into either a black low volume 384 well microtiter plate or a black 1536 well microtiter plate (both Greiner Bio-One, Frickenhausen, Germany), 2 microL of a solution of CDK12/CycK in aqueous assay buffer [25 millimol/L HEPES pH 7.5, 20 millimol/L MgCl2, 5 millimol/L β-glycerophosphate, 2 millimol/L EGTA, 1.0 millimol/L dithiothreitol, 0.01% (v/v) Nonidet-P40 (Sigma), 0.01% (w/v) bovine serum albumin] were added and the mixture was incubated for 15 min at 22° C. to allow pre-binding of the test compounds to the enzyme before the start of the kinase reaction. Then the kinase reaction was started by the addition of 3 microL of a solution ATP (3.33 millimol/L=>final conc. in the 5 microL assay volume is 2 millimol/L) and substrate (1.67 micromol/L=>final conc. in the 5 microL assay volume is 1 micromol/L) in assay buffer and the resulting mixture was incubated for a reaction time of 60 min at 22° C. The concentration of CDK12/CycK was adjusted depending of the activity of the enzyme lot and was chosen appropriate to have the assay in the linear range, typical concentrations were about 0.75 nanomol/L. The reaction was stopped by the addition of 3 microL of a solution of TR-FRET detection reagents (125 nanomol/L streptavidine-XL665 [Cisbio Bioassays, Codolet, France] and 0.67 nanomol/L anti-Phospho-c-Myc (Ser 62) (E1J4K)-antibody from Cell Signalling [#13748] and 2 nanomol/L LANCE EU-W1024 labeled anti-rabbit IgG antibody [Perkin-Elmer, product no. 0083]) in an aqueous EDTA-solution (133 millimol/L EDTA, 0.27% (w/v) bovine serum albumin in 66.7 millimol/L HEPES pH 7.5).
as §1, with “Pherastar FS” for “Pherastar”

CDK12/CycK, sequence (Q9NYV4 with tags, fused parts or gaps): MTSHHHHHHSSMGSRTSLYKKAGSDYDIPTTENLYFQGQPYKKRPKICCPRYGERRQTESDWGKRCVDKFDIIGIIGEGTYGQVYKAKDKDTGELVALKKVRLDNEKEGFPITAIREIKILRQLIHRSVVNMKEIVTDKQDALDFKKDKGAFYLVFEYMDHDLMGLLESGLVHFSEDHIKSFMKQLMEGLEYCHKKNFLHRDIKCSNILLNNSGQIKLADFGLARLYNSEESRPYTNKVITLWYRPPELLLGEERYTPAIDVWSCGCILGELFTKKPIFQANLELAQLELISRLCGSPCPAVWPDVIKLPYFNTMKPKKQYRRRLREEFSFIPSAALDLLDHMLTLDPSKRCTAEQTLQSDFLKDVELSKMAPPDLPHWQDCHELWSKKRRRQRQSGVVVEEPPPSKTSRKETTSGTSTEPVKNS
CDK12/CycK, sequence (O75909 1-300 partner limits assumed): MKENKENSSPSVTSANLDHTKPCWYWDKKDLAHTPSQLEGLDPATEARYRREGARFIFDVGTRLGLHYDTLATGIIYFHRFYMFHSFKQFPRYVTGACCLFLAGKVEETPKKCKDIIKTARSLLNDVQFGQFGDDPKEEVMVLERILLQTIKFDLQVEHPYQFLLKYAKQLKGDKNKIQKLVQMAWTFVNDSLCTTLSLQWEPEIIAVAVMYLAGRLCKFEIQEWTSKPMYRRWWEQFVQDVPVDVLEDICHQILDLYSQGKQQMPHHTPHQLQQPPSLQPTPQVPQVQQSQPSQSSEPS

IC50 (CDK2/CycE) [µM]	IC50 (CDK12/CycK) [µM]	SMILES
4.34	6.68	NCCc1cccc2[nH]c(CNc3nc(N4CCOCC4)nc4c(Br)cnn34)nc12 [Example 112, N-{[7-(2-aminoethyl)-1H-benzimidazol-2-yl]methyl}-8-bromo-2-(morpholin-4-yl)pyrazolo[1,5-a][1,3,5]triazin-4-amine]
1.7	2.95	Fc1cccc(-c2nnc(CNc3nc(N4C[C@H]5C[C@@H]4CO5)nc4c(Br)cnn34)[nH]2)c1 [Example 153, 8-bromo-N-{[5-(3-fluorophenyl)-4H-1,2,4-triazol-3-yl]methyl}-2-[(1R,4R)-2-oxa-5-azabicyclo[2.2.1]heptan-5-yl]pyrazolo[1,5-a][1,3,5]triazin-4-amine]
6.72	> 20	C[C@H]1CN(c2nc(NCc3nnc(-c4ccccc4)[nH]3)n3ncc(Br)c3n2)CCN1C.O=CO [Example 122, 8-bromo-2-[(3S)-3,4-dimethylpiperazin-1-yl]-N-[(5-phenyl-4H-1,2,4-triazol-3-yl)methyl]pyrazolo[1,5-a][1,3,5]triazin-4-amine formate]
5.99	6.83	CN1CCN(c2nc(NCc3nc4c(F)cccc4[nH]3)n3ncc(Br)c3n2)CC1 [Example 126, 8-bromo-N-[(4-fluoro-1H-benzimidazol-2-yl)methyl]-2-(4-methylpiperazin-1-yl)pyrazolo[1,5-a][1,3,5]triazin-4-amine]
0.707	1.31	C[C@H]1CCCCN1c1nc(NCc2nc3ccccc3[nH]2)n2ncc(Br)c2n1 [Example 141, N-[(1H-benzimidazol-2-yl)methyl]-8-bromo-2-[(2S)-2-methylpiperidin-1-yl]pyrazolo[1,5-a][1,3,5]triazin-4-amine]
1.36	5.17	CC(C)c1cnn2c(NCc3nc4ccccc4[nH]3)nc(N(C)CC(C)(C)O)nc12 [Example 5, 1-{[4-{[(1H-benzimidazol-2-yl)methyl]amino}-8-(propan-2-yl)pyrazolo[1,5-a][1,3,5]triazin-2-yl](methyl)amino}-2-methylpropan-2-ol]
9.63	10.9	Brc1cnn2c(NCc3nc4ccccc4[nH]3)nc(N3CCNCC3)nc12 [Example 128, N-[(1H-benzimidazol-2-yl)methyl]-8-bromo-2-(piperazin-1-yl)pyrazolo[1,5-a][1,3,5]triazin-4-amine]
10.8	> 5.71	CN1CCN(c2nc(NCc3nc4cc(Cl)ccc4[nH]3)n3ncc(Br)c3n2)CC1 [Example 163, 8-bromo-N-[(5-chloro-1H-benzimidazol-2-yl)methyl]-2-(4-methylpiperazin-1-yl)pyrazolo[1,5-a][1,3,5]triazin-4-amine]
3.24	0.788	Fc1cccc2[nH]c(CNc3nc(N4CCOCC4)nc4c(Br)cnn34)nc12 [Example 97, 8-bromo-N-[(4-fluoro-1H-benzimidazol-2-yl)methyl]-2-(morpholin-4-yl)pyrazolo[1,5-a][1,3,5]triazin-4-amine]
1.78	4.65	Clc1ccccc1-c1cnc(CNc2nc(N3CCOCC3)nc3c(Br)cnn23)[nH]1 [Example 96, 8-bromo-N-{[5-(2-chlorophenyl)-1H-imidazol-2-yl]methyl}-2-(morpholin-4-yl)pyrazolo[1,5-a][1,3,5]triazin-4-amine]
4.01	0.176	C[C@@H]1CN(c2nc(NCc3nc4c(F)cccc4[nH]3)n3ncc(Br)c3n2)C[C@H](C)O1 [Example 109, 8-bromo-2-[(2R,6S)-2,6-dimethylmorpholin-4-yl]-N-[(4-fluoro-1H-benzimidazol-2-yl)methyl]pyrazolo[1,5-a][1,3,5]triazin-4-amine]
14.7	> 20	CC(C)c1cnn2c(NCc3nc4ccccc4[nH]3)nc(N3CC4(COC4)C3)nc12 [Example 9, N-[(1H-benzimidazol-2-yl)methyl]-2-(2-oxa-6-azaspiro[3.3]heptan-6-yl)-8-(propan-2-yl)pyrazolo[1,5-a][1,3,5]triazin-4-amine]
6.57	10.2	CC(C)c1cnn2c(NCc3nc4ccccc4[nH]3)nc(N3CCOC[C@H]3C)nc12 [Example 7, N-[(1H-benzimidazol-2-yl)methyl]-2-[(3R)-3-methylmorpholin-4-yl]-8-(propan-2-yl)pyrazolo[1,5-a][1,3,5]triazin-4-amine]
0.826	1.07	Fc1cc(F)cc(-c2nnc(CNc3nc(N4CCOCC4)nc4c(Br)cnn34)[nH]2)c1 [Example 105, 8-bromo-N-{[5-(3,5-difluorophenyl)-4H-1,2,4-triazol-3-yl]methyl}-2-(morpholin-4-yl)pyrazolo[1,5-a][1,3,5]triazin-4-amine]
7.11	8.86	Brc1cnn2c(NCc3nc4ccccc4[nH]3)nc(N3C[C@@H]4CCCN[C@@H]4C3)nc12 [Example 146, N-[(1H-benzimidazol-2-yl)methyl]-8-bromo-2-[(4aS,7aS)-octahydro-6H-pyrrolo[3,4-b]pyridin-6-yl]pyrazolo[1,5-a][1,3,5]triazin-4-amine]
15.4	13.2	Brc1cnn2c(NCc3nnc(-c4ccccc4)[nH]3)nc(N3C[C@@H]4C[C@H]3CO4)nc12 [Example 120, 8-bromo-2-[(1S,4S)-2-oxa-5-azabicyclo[2.2.1]heptan-5-yl]-N-[(5-phenyl-4H-1,2,4-triazol-3-yl)methyl]pyrazolo[1,5-a][1,3,5]triazin-4-amine]

Source: patent US20230117034A1, “PYRAZOLOTRIAZINES” (Bayer Aktiengesellschaft, priority 2019, published 2023)
